Data: US20040250313A1, “Insecticidal proteins and synergistic combinations thereof” (priority 2001, published 2004)
Several values for one entry are separate records, joined by “and”; a condition that tells them apart may be missing. Identical values can stand only once. Positions of bridges follow the written chain, without caps; N, C: chain ends. Residues, ends and D or L forms follow the SMILES beside them. No end group written: not given here.

Assays:
Format in all cases: in vivo
Heliothis virescens [1] = test: Comparative insect bioassay on treated cotton leaves, neonate larvae in minipots; conditions: after three days; for corrected % kill: Abbott's formula corrected
Procedure: These were carried out between the synthetic peptide having the sequence depicted as SEQ ID No. 2 (also referred to as the GGK-445 peptide) and the insecticidal peptide obtainable from the fungus Paecilomyces farinosus (referred to as “445”) and described in International Patent Application Publication Number WO01/00841. This protein, having the sequence depicted as SEQ ID No. 41, was synthesised, purified and the N-terminal Glycine was acetylated.
(§1) Prior to the assay, twenty neonate Heliothis virescens larvae were gently brushed into each of three ‘minipot’ containers per treatment (i.e. three replicates per treatment). The peptide to be tested was diluted using sterile, deionised water to create a range of test concentrations for determination of a kill curve.
(§2) Three freshly excised cotton leaves per treatment had 0.05 ml of the appropriate peptide solution applied by pipette to the centre of the axial surface of each leaf. The droplet was then spread over a circular area in excess of the diameter of a minipot with a fine artists paint brush (a fresh paint brush being used for each compound to avoid contamination), the concentrations being applied from lowest to highest. The leaves were left in a fume cupboard just long enough for the surface deposit to dry, but care was taken to avoid excessive leaf wilting.
Once dry the leaves were placed, contaminated surface down over the appropriately labelled, pre-infested minipot and a lid snapped over it. The minipots were placed in plastic trays and placed in a controlled environment room at 25-27° C.
After three days the numbers of live larvae remaining were counted and percent mortality determined. Percent mortality for the peptide treatments was corrected in comparison with the water-treated control using the Abbott's formula. Damage to the leaf was also assessed and represented as percent feeding inhibition.

Helicoverpa armigera = test: LC50 determination, cotton leaf bioassay as in Example 2
Spodoptera littoralis = test: as above
Heliothis virescens [2] = test: as above; conditions: individual test, logit analysis
Procedure: as §1, §2
Once dry the leaves were placed, contaminated surface down over the appropriately labelled, pre-infested minipot and a lid snapped over it. […]
After three days the numbers of live larvae remaining were counted and percent mortality determined. […] Damage to the leaf was also assessed and represented as percent feeding inhibition.
Mean LC50 values were determined for the synthetic peptide, GGK-445, having the amino acid sequence designated in SEQ ID No. 2. […]

Spodoptera exigua = test: as above; conditions: individual test, logit analysis
[3] = individual test, logit analysis

Compound | % feeding reduction compared to control (Heliothis virescens [1]; dose 0.15 ppm) [%] | % feeding reduction compared to control (Heliothis virescens [1]; dose 0.46 ppm) [%] | % feeding reduction compared to control (Heliothis virescens [1]; dose 1.37 ppm) [%] | % feeding reduction compared to control (Heliothis virescens [1]; dose 4.12 ppm) [%] | % feeding reduction compared to control (Heliothis virescens [1]; dose 12.35 ppm) [%] | % feeding reduction compared to control (Heliothis virescens [1]; dose 37.04 ppm) [%] | % feeding reduction compared to control (Heliothis virescens [1]; dose 111.11 ppm) [%] | % feeding reduction compared to control (Heliothis virescens [1]; dose 333.33 ppm) [%] | % feeding reduction compared to control (Heliothis virescens [1]; dose 1000 ppm) [%] | also measured
Y1945F - synthesised, acetylated-445: insecticidal peptide obtainable from the fungus Paecilomyces farinosus, described in WO01/00841; SEQ ID No. 41, synthesised, purified, N-terminal Glycine acetylated (Ac-GKICTPAGVKCPAALPCCPGLRCIGGVNNKVCR; cysteine pairing not given here) | 0.0 | 0.0 | 0.0 | 43.8 | 68.8 | 68.8 | 83.8 | 88.8 | 91.3 | corrected % kill (Heliothis virescens [1]; dose 0.15 ppm): 0.0%; corrected % kill (Heliothis virescens [1]; dose 0.46 ppm): 5.6%; corrected % kill (Heliothis virescens [1]; dose 1.37 ppm): 13.0%; corrected % kill (Heliothis virescens [1]; dose 4.12 ppm): 48.1%; corrected % kill (Heliothis virescens [1]; dose 12.35 ppm): 75.9%; corrected % kill (Heliothis virescens [1]; dose 37.04 ppm): 72.2%; corrected % kill (Heliothis virescens [1]; dose 111.11 ppm): 98.1%; corrected % kill (Heliothis virescens [1]; dose 333.33 ppm): 98.1%; corrected % kill (Heliothis virescens [1]; dose 1000 ppm): 100.0%
CC[C@H](C)[C@@H]1NC(=O)[C@@H]2CSSC[C@@H]3NC(=O)[C@H](CCCCN)NC(=O)[C@H](C(C)C)NC(=O)CNC(=O)[C@H](C)NC(=O)[C@@H]4CCCN4C(=O)[C@H]([C@@H](C)O)NC(=O)[C@@H](NC(=O)[C@@H](NC(=O)[C@H](CCCCN)NC(=O)CNC(=O)CN)[C@@H](C)CC)CSSC[C@H](NC(=O)[C@H](CSSC[C@@H](C(=O)N[C@@H](CCCNC(=N)N)C(=O)O)NC(=O)[C@H](C(C)C)NC(=O)[C@H](CCCCN)NC(=O)[C@H](CC(N)=O)NC(=O)[C@H](CC(N)=O)NC(=O)[C@H](C(C)C)NC(=O)CNC(=O)CNC1=O)NC(=O)[C@@H]1CCCN1C(=O)[C@H](CC(C)C)NC(=O)[C@H](C)NC(=O)[C@H](C)NC(=O)[C@@H]1CCCN1C3=O)C(=O)N1CCC[C@H]1C(=O)NCC(=O)N[C@@H](CC(C)C)C(=O)N[C@@H](CCCNC(=N)N)C(=O)N2 [GGK-445] (H-GGKICTPAGVKCPAALPCCPGLRCIGGVNNKVCR-OH; disulfide 5-19, 12-24, 18-33; N-terminus and C-terminus assumed) | 0.0 | 0.0 | 0.0 | 6.4 | 6.4 | 25.1 | 50.1 | 62.5 | 81.3 | LC50 (Helicoverpa armigera; [3]): 113.24 ppm and 421.93 ppm; mean LC50 (Helicoverpa armigera; mean of individual tests): 657.21 ppm; LC50 (Spodoptera littoralis; [3]): 283.26 ppm and 626.72 ppm and 371.71 ppm and 201.91 ppm; mean LC50 (Spodoptera littoralis; mean of individual tests): 343.75 ppm; LC50 (Heliothis virescens [2]): 171.15 ppm; LC50 (Spodoptera exigua): 339.21 ppm and 972.5 ppm and 271.32 ppm
